Data: paper PMC10233829 (ACS Omega, 2023)
≈ marks a conversion by molar mass, not a printed value. Like-named read-outs stand apart in the source and are kept apart here.

Experiments:
S. aureus ATCC 25923 = assay: MIC, twofold microdilution, standard strain; type: cell-based; settings: Staphylococcus aureus, ATCC25923, 18 h
M. tuberculosis H37Rv = assay: Tuberculostatic activity, Microplate Alamar Blue Assay (MIC); type: cell-based, Mycobacterium tuberculosis; settings: Mycobacterium tuberculosis, H37RV; MABA; read-out: MIC M. tuberculosis H37Rv
E. cloacae 8 = assay: MIC, twofold microdilution, clinical strain; type: cell-based, Escherichia cloacae; settings: Enterobacter cloacae, 8; clinical strain, 18 h
[1] = MTT assay, cytotoxic activity; type: cell-based; settings: human, HaCaT cells (immortal keratinocytes); MTT, 72 h, normal cell line; read-out: IC50 HaCaT
Protocol: (§1) Cells were seeded in 6 mL medium in a tissue culture flask (50 mL) in a 37 °C/5% CO2 humidified incubator. […] MTT analysis was performed according to a previous study.[59] Untreated cells were used as controls. Cell absorbance results were inserted into the formula for the relative MTT level (%). It allows to calculate the viability of cells under the influence of the tested compounds. Cell viability was expressed as the percentage of MTT reduction in cells treated with tested compounds compared to the control sample. The relative MTT level was calculated using the formula [100%] = A/B × 100% where A—the test sample absorbance and B—the control sample absorbance.

E. coli 951 = assay: MIC, twofold microdilution, clinical strain; type: cell-based; settings: Escherichia coli, 18 h
E. coli 520 = assay: MIC, twofold microdilution, clinical strain; type: cell-based; settings: Escherichia coli, 18 h
[2] = test system: Staphylococci (standard strains); assay: MIC, standard Gram-positive strains as a panel; type: cell-based, S. aureus, S. epidermidis; settings: read-out: MIC toward standard Staphylococci (range over strains)
P. aeruginosa 37 = assay: MIC, twofold microdilution, clinical strain; type: cell-based; settings: Pseudomonas aeruginosa, 18 h
[3] = test system: clinical bacterial strains; assay: MIC, clinical isolates as groups of strains; type: cell-based; settings: for fold more effective than CP: S. aureus 180 and 5595; for MIC: clinical strains, read-out: MIC against selected E. coli and E. cloacae strains
S. epidermidis 5253 = assay: MIC, twofold microdilution, clinical strain; type: cell-based, Staphylococcus epidermidis; settings: for MIC S. epidermidis 5253: 18 h; for MIC: Staphylococcus epidermidis, 5253, 18 h
S. epidermidis KR4243/1 = assay: MIC, twofold microdilution, clinical strain; type: cell-based; settings: Staphylococcus epidermidis, 18 h
S. aureus 5595 = assay: MIC, twofold microdilution, clinical strain; type: cell-based; settings: Staphylococcus aureus, 18 h
S. pasteuri KR 4358 = assay: MIC, twofold microdilution, clinical strain; type: cell-based; settings: Staphylococcus pasteuri, KR4358, 18 h
S. aureus T5591 = assay: MIC, twofold microdilution, clinical strain; type: cell-based, Staphylococcus aureus; settings: for MIC: Staphylococcus aureus, T5591, 18 h
[4] = test system: S. epidermidis ATCC 12228; assay: MIC, twofold microdilution, standard strain; type: cell-based; settings: Staphylococcus epidermidis, ATCC12228, 18 h
S. aureus T5595 = assay: MIC, twofold microdilution, clinical strain; type: cell-based, Staphylococcus aureus; settings: for MIC: Staphylococcus aureus, T5595, 18 h
S. aureus ATCC 29213 = assay: MIC, twofold microdilution, standard strain; type: cell-based; settings: Staphylococcus aureus, ATCC29213, 18 h
P. aeruginosa ATCC 15442 = assay: MIC, twofold microdilution, standard strain; type: cell-based, Pseudomonas aeruginosa; settings: Pseudomonas aeruginosa, ATCC15442; standard strain, 18 h
S. aureus NCTC 4163 = assay: MIC, twofold microdilution, standard strain; type: cell-based; settings: Staphylococcus aureus, NCTC4163, 18 h
K. pneumoniae 28 = assay: MIC, twofold microdilution, clinical strain; type: cell-based; settings: Klebsiella pneumoniae, 18 h
E. coli ATCC 25922 = assay: MIC, twofold microdilution, standard strain; type: cell-based, Escherichia coli; settings: Escherichia coli, ATCC25922; standard strain, 18 h
S. epidermidis 4341 = assay: MIC, twofold microdilution, clinical strain; type: cell-based; settings: Staphylococcus epidermidis, 18 h
K. pneumoniae 510 = assay: MIC, twofold microdilution, clinical strain; type: cell-based, Klebsiella pneumoniae; settings: Klebsiella pneumoniae, 510; clinical strain, 18 h
P. aeruginosa 659 = assay: MIC, twofold microdilution, clinical strain; type: cell-based; settings: Pseudomonas aeruginosa, 18 h
M. tuberculosis Spec 210 = assay: microbe, parasite or virus in culture; type: cell-based, Mycobacterium tuberculosis; settings: M. tuberculosis Spec. 210
S. aureus 180 = assay: MIC, twofold microdilution, clinical strain; type: cell-based; settings: Staphylococcus aureus, 18 h
[5] = test system: S. epidermidis ATCC 35984; assay: MIC, twofold microdilution, standard strain; type: cell-based; settings: Staphylococcus epidermidis, ATCC35984, 18 h
S. aureus ATCC 6538 = assay: MIC, twofold microdilution, standard strain; type: cell-based, Staphylococcus aureus; settings: Staphylococcus aureus, ATCC6538; standard strain, 18 h
PC3 cells = assay: MTT assay, cytotoxic activity; type: cell-based, human; settings: Homo sapiens, PC-3, 72 h, MTT, 72 h
Protocol: as §1, with “Metastatic prostate cancer (PC3) and human immortal keratinocyte (HaCaT) cell lines were purchased from the American Type Culture Collection (ATCC, Rockville, MD, USA) and cultured in MEM (minimal essential medium, Thermo Sci, USA), RPMI 1640 (Roswell Park Memorial Institute, Biowest SAS, France), and DMEM (Dulbecco’s Modified Eagle’s Medium, Biowest SAS, France). Cells” for “Cells”

E. coli 600 = assay: MIC, twofold microdilution, clinical strain; type: cell-based, Escherichia coli; settings: Escherichia coli, 600, 18 h
[6] = test system: M. tuberculosis Spec. 192; assay: Tuberculostatic activity, Microplate Alamar Blue Assay (MIC); type: cell-based; settings: Mycobacterium tuberculosis, MABA, read-out: MIC M. tuberculosis Spec. 192 (sensitive to tuberculostatics)
S. aureus DNA gyrase = S. aureus DNA gyrase (Staphylococcus aureus, UniProt P0A0K8+P20831); assay: biochemical; settings: supercoiling of relaxed pBR322
S. aureus DNA gyrase, sequence (P0A0K8 whole entry): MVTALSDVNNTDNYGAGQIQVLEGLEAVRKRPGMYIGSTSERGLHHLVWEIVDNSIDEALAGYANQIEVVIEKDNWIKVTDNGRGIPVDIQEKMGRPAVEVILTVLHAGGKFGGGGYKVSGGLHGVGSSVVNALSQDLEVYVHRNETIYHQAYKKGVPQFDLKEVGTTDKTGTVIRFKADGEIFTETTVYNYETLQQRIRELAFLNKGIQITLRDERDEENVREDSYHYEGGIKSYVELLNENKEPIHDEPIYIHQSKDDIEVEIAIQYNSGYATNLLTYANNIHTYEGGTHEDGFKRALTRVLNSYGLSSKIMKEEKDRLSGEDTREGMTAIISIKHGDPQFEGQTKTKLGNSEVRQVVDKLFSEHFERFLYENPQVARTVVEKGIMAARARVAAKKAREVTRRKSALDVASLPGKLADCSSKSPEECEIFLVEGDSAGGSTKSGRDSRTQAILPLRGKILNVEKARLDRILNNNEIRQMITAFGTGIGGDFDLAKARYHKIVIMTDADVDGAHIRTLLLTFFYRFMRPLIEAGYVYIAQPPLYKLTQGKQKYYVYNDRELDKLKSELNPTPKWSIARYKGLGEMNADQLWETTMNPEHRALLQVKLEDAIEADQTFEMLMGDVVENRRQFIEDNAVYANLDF
S. aureus DNA gyrase, sequence (P20831 whole entry): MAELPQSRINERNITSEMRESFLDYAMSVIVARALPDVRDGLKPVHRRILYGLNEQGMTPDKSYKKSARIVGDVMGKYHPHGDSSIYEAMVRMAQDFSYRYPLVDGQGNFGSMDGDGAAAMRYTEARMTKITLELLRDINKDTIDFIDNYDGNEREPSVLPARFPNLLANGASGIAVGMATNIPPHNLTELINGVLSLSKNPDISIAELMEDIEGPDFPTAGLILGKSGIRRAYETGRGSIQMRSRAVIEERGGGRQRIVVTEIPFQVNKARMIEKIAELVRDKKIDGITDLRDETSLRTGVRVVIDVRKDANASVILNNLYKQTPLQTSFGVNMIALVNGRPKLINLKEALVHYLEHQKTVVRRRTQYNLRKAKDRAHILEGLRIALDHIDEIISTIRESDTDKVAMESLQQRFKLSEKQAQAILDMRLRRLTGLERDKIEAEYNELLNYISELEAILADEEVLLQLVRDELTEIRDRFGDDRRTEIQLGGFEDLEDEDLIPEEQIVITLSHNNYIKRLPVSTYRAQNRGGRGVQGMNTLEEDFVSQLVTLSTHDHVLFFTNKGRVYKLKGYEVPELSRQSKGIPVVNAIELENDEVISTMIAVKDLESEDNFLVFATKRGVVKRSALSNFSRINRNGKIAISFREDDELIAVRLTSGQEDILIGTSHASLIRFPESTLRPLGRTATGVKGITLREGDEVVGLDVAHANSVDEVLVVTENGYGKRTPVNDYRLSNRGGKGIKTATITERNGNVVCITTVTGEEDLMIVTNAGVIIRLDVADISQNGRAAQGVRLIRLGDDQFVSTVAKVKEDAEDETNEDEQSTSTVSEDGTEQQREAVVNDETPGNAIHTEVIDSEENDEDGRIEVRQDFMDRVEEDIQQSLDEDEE
Protocol: The enzymatic assay was carried using commercial topoisomerases type II as previously described by Alt et al.[55] with some modifications.
Briefly, 1 U of the enzyme (gyrase or topo IV, Inspiralis. Norwich, UK) isolated from S. aureus converts […] of relaxed pBR322 DNA to the supercoiled form (gyrase) or decatenates 200 ng of kinetoplast DNA (topo IV). […] The reactions were terminated by adding an equal volume of STEB buffer (40% sucrose, 100 mM Tris–HCl pH 8, 10 mM EDTA, and 0.5 mg/mL bromophenol blue), followed by extraction with 1 volume of chloroform/isoamyl alcohol (24:1). The samples were vortexed and centrifuged, and 20 μL of the aqueous phase of each sample was loaded onto a 1% agarose gel and left for 30 min prior to electrophoresis to allow diffusion of salt. […] Gels were stained with ethidium bromide and visualized under UV light in a transilluminator (ChemiDoc MP, Bio Rad).

[7] = test system: P. aeruginosa ATCC 15442 and E. coli ATCC 25922; assay: MIC, standard Gram-negative rods as a panel; type: cell-based; settings: P. aeruginosa ATCC 15442, E. coli ATCC 25922; read-out: MIC against standard Gram-negative rods (range over strains)
[8] = target: T1, S. aureus topoisomerase IV (Staphylococcus aureus, UniProt P0C1S7+P0C1U9); assay: Topoisomerase IV decatenation assay; type: biochemical; settings: decatenation of kinetoplast DNA; read-out: IC50 S. aureus topoisomerase IV (converted)
T1 construct: purchased Inspiralis, Norwich, UK
T1 sequence (P0C1U9 whole entry): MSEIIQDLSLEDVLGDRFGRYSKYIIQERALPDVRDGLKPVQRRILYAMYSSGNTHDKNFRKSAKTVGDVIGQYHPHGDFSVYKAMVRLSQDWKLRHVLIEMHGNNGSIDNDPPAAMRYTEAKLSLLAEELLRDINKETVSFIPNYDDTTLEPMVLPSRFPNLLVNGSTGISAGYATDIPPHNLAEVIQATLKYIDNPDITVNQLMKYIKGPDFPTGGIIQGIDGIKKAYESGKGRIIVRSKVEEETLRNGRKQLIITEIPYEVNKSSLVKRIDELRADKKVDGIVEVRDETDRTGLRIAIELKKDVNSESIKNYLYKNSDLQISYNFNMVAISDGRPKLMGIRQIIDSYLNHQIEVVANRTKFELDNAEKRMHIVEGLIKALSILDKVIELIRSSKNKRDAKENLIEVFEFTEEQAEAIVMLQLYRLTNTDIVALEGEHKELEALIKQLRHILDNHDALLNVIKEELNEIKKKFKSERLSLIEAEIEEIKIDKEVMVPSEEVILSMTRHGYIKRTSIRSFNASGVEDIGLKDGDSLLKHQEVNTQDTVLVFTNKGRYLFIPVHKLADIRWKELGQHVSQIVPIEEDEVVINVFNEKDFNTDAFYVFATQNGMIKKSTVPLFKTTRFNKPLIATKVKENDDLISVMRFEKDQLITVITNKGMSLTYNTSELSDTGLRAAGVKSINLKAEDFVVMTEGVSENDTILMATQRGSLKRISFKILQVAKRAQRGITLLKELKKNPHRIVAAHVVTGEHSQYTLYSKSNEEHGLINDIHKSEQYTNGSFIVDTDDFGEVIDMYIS
T1 sequence (P0C1S7 whole entry): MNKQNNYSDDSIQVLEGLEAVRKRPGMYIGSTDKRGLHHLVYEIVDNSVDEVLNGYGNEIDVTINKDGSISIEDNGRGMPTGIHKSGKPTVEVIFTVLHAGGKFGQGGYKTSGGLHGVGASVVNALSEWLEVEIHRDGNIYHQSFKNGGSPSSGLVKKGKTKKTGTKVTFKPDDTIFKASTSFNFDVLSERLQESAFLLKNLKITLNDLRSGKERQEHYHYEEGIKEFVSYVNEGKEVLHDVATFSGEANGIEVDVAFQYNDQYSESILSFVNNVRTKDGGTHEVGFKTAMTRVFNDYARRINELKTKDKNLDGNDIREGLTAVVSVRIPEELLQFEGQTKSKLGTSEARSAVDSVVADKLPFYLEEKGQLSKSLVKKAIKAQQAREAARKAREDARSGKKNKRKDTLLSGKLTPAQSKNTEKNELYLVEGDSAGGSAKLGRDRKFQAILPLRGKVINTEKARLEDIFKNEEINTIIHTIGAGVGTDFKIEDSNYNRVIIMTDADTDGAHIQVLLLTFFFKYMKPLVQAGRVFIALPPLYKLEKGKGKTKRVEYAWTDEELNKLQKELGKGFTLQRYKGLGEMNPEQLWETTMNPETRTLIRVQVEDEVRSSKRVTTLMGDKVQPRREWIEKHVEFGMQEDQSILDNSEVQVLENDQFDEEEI
Protocol: Briefly, 1 U of the enzyme (gyrase or topo IV, Inspiralis. Norwich, UK) isolated from S. aureus converts 0.5 mg of relaxed pBR322 DNA to the supercoiled form (gyrase) or decatenates 200 ng of kinetoplast DNA (topo IV). […] The reactions were terminated by adding an equal volume of STEB buffer (40% sucrose, 100 mM Tris–HCl pH 8, 10 mM EDTA, and 0.5 mg/mL bromophenol blue), followed by extraction with 1 volume of chloroform/isoamyl alcohol (24:1). The samples were vortexed and centrifuged, and 20 μL of the aqueous phase of each sample was loaded onto a 1% agarose gel and left for 30 min prior to electrophoresis to allow diffusion of salt. […] Gels were stained with ethidium bromide and visualized under UV light in a transilluminator (ChemiDoc MP, Bio Rad).

| SMILES | MIC (S. aureus ATCC 25923) [µg/mL] | MIC (M. tuberculosis H37Rv) [µg/mL] | MIC (E. cloacae 8) [µg/mL] | IC50 at 72 h [1] [µM] | MIC (E. coli 951) [µg/mL] | MIC (E. coli 520) [µg/mL] | MIC (P. aeruginosa 37) [µg/mL] | fold more effective than CP [3] [fold] | MIC [3] [µg/mL] | MIC S. epidermidis 5253 (S. epidermidis 5253) [µg/mL] | MIC (S. epidermidis 5253) [µg/mL] | MIC (S. epidermidis KR4243/1) [µg/mL] | MIC (S. aureus 5595) [µg/mL] | MIC (S. pasteuri KR 4358) [µg/mL] | MIC (S. aureus T5591) [µg/mL] | MIC [4] [µg/mL] | MIC (S. aureus T5595) [µg/mL] | MIC (S. aureus ATCC 29213) [µg/mL] | MIC (P. aeruginosa ATCC 15442) [µg/mL] | MIC (S. aureus NCTC 4163) [µg/mL] | also measured |
| --- | --- | --- | --- | --- | --- | --- | --- | --- | --- | --- | --- | --- | --- | --- | --- | --- | --- | --- | --- | --- | --- |
| O=C(O)c1cn(C2CC2)c2cc(N3CCN(C(=O)CCCl)CC3)c(F)cc2c1=O [Compound 4, 7-[4-(3-Chloropropionyl)-piperazin-1-yl]-1-cyclopropyl-6-fluoro-4-oxo-1,4-dihydro-quinoline-3-carboxylic Acid] | 0.4 (≈ 0.948 µM) | 2 (≈ 4.74 µM) | 0.8 (≈ 1.9 µM) | > 100 | 25.6 (≈ 60.7 µM) | 0.8 (≈ 1.9 µM) | > 25.6 | 2.5 | 0.1 to 0.8 (≈ 0.237 to 1.9 µM) | 25.6 (≈ 60.7 µM) | 12.8 to 25.6 (≈ 30.3 to 60.7 µM) | 0.2 (≈ 0.474 µM) | 0.2 (≈ 0.474 µM) | 0.2 (≈ 0.474 µM) | 0.4 (≈ 0.948 µM) | 0.2 (≈ 0.474 µM) | 0.4 (≈ 0.948 µM) | 0.2 (≈ 0.474 µM) | 12.8 (≈ 30.3 µM) | 0.2 (≈ 0.474 µM) | MIC ([2]; standard Gram-positive strains of Table 1): 0.1 to 0.8 µg/mL (≈ 0.237 to 1.9 µM); share of the reference (CP) activity ([3]; S. aureus T5595 and T5591): 62.5%; MIC (K. pneumoniae 28): > 25.6 µg/mL; MIC (E. coli ATCC 25922): 3.2 µg/mL (≈ 7.59 µM); MIC (S. epidermidis 4341): 6.4 µg/mL (≈ 15.2 µM); MIC (K. pneumoniae 510): > 25.6 µg/mL; MIC (P. aeruginosa 659): > 25.6 µg/mL; fold more effective than the reference tuberculostatics (M. tuberculosis Spec 210): 8–32 fold; MIC (S. aureus 180): 0.2 µg/mL (≈ 0.474 µM); MIC [5]: 0.2 µg/mL (≈ 0.474 µM); MIC (S. aureus ATCC 6538): 0.2 µg/mL (≈ 0.474 µM); IC50 (PC3 cells): 51.6 ± 8.1 µM; MIC (E. coli 600): 0.8 µg/mL (≈ 1.9 µM); MIC [6]: 1 µg/mL (≈ 2.37 µM) |
| O=C(O)c1cn(C2CC2)c2cc(N3CCN(C(=O)CCCCCl)CC3)c(F)cc2c1=O [Compound 6, 7-[4-(5-Chloropentanoyl)-piperazin-1-yl]-1-cyclopropyl-6-fluoro-4-oxo-1,4-dihydro-quinoline-3-carboxylic Acid] | 0.2 (≈ 0.445 µM) | 0.5 (≈ 1.11 µM) | 0.8 (≈ 1.78 µM) | 19.7 ± 2.8 | 12.8 (≈ 28.5 µM) | 0.4 (≈ 0.889 µM) | 6.4 (≈ 14.2 µM) | 5 | 0.1 to 0.8 (≈ 0.222 to 1.78 µM) | 12.8 (≈ 28.5 µM) | 12.8 to 25.6 (≈ 28.5 to 56.9 µM) | 0.2 (≈ 0.445 µM) | 0.1 (≈ 0.222 µM) | 0.2 (≈ 0.445 µM) | 0.1 to 0.2 (≈ 0.222 to 0.445 µM) | 0.2 (≈ 0.445 µM) | 0.1 to 0.2 (≈ 0.222 to 0.445 µM) | 0.2 (≈ 0.445 µM) | 1.6 (≈ 3.56 µM) | 0.2 (≈ 0.445 µM) | IC50 (S. aureus DNA gyrase): 12 µM; MIC [2]: 0.1 to 0.8 µg/mL (≈ 0.222 to 1.78 µM); times more powerful than CP ([3]; S. aureus T5595 and T5591): 1.25–2.5 times; MIC S. aureus T5591 (S. aureus T5591; 18 h): 0.2 µg/mL (≈ 0.445 µM); MIC [7]: ≤ 1 µg/mL; MIC S. aureus T5595 (S. aureus T5595; 18 h): 0.2 µg/mL (≈ 0.445 µM); MIC (K. pneumoniae 28): > 25.6 µg/mL; MIC (E. coli ATCC 25922): 0.2 µg/mL (≈ 0.445 µM); MIC (S. epidermidis 4341): 6.4 µg/mL (≈ 14.2 µM); MIC (K. pneumoniae 510): > 25.6 µg/mL; IC50 [8]: 17.8 µM; MIC (P. aeruginosa 659): 12.8 µg/mL (≈ 28.5 µM); MIC (S. aureus 180): 0.1 µg/mL (≈ 0.222 µM); MIC [5]: 0.2 µg/mL (≈ 0.445 µM); MIC (S. aureus ATCC 6538): 0.2 µg/mL (≈ 0.445 µM); IC50 (PC3 cells): 108 ± 11 µM; MIC (E. coli 600): 0.4 µg/mL (≈ 0.889 µM); MIC [6]: 0.5 µg/mL (≈ 1.11 µM) |
